Laboratory results from ChEMBL document CHEMBL1159191, “2-alkyl-4-ethyl-5-[6-methyl-6-(2H-tetrazol-5-yl)heptyloxy]phenol leukotriene B4 receptor antagonists” (Bioorg Med Chem Lett, 1995).

Assays:
Cavia porcellus = organism: Cavia porcellus; test: Compound was evaluated for antagonism of LTB4 effect on guinea pig lung strip contraction; type: functional
Leukotriene B4 receptor = Leukotriene B4 receptor (Homo sapiens, UniProt Q9NPC1+Q15722); test: LTB4-induced up-regulation of CD11b/CD18 in human neutrophils; type: functional
[1] = target: Leukotriene B4 receptor 1 (Homo sapiens, UniProt Q15722); test: Binding affinity against human neutrophil Receptor.
Leukotriene B4 receptor 1, sequence (Q15722 whole entry): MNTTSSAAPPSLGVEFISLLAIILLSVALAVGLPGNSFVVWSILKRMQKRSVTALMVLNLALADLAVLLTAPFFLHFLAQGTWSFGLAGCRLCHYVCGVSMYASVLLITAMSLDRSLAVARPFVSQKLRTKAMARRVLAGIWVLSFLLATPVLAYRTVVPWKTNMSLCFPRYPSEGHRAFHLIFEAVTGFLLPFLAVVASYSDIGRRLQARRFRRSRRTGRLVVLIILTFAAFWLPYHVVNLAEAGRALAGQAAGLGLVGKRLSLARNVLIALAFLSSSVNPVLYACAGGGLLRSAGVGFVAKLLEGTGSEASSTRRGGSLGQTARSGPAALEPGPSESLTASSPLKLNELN

SMILES: CCc1cc(CC)c(OCCCCCC(C)(C)c2nn[n-]n2)cc1O.[Na+]
- Kb (Cavia porcellus): 167 nM
- IC50 (Leukotriene B4 receptor): 179 nM
- Ki [1]: 5.14 nM

SMILES: CCCCCCc1cc(CC)c(OCCCCCC(C)(C)c2nn[n-]n2)cc1O.[Na+]
- Kb (Cavia porcellus): 688 nM
- IC50 (Leukotriene B4 receptor): 878 nM
- Ki [1]: 28.4 nM

SMILES: CCCCc1cc(CC)c(OCCCCCC(C)(C)c2nn[nH]n2)cc1O
- Kb (Cavia porcellus): 53 nM

SMILES: CCCCCOc1cc(CC)c(OCCCCCC(C)(C)c2nn[nH]n2)cc1O
- Kb (Cavia porcellus): 216 nM

SMILES: CCc1cc(OC)c(O)cc1OCCCCCC(C)(C)c1nn[nH]n1
- Kb (Cavia porcellus): 222 nM

SMILES: CCOc1cc(CC)c(OCCCCCC(C)(C)c2nn[nH]n2)cc1O
- Kb (Cavia porcellus): 264 nM

SMILES: CCCc1cc(CC)c(OCCCCCC(C)(C)c2nn[nH]n2)cc1O
- Kb (Cavia porcellus): 34 nM
- Ki [1]: 5.53 nM
